Laboratory results reported in patent EP0326134A1, “4-Amino-2,3-disubstituted-6,7-dihydro-5H-1-pyridine derivatives, process for their preparation and medicaments containing them” (NAUCHNO-ISSLEDOVATELSKY INSTITUT TEKHNOLOGII I BEZOPASNOSTI …, priority 1988, dated 1989).
Structures can show the parent of a compound that is named as a salt. Where two headings read alike, the source gives them in different places.

Key:
M-cholinrezeptoren = assay: Radioligand displacement of 3H-Propyl-2-aminobenzylat in brain; assay type: binding, Kaninchens
Description: (§1) Dies beweisen spezielle Radioligandenuntersuchungen an einzelnen erfindungsgemäßen Verbindungen (s. Tabelle 6).

[1] = target: T1, Acetylcholinesterase menschlicher Erythrozyten (Homo sapiens, UniProt P22303); assay: Acetylcholinesterase inhibition, spectrophotometric; assay type: biochemical; conditions: Acetylcholinesteraseinhibierung bei menschlichen Erythrozyten IK, (Mol), human erythrocyte enzyme
T1 construct: Acetylcholin-esteraseinhi-bierung bei menschlichen Erythrozyten; from tissue; host or cells: human erythrocytes
T1 sequence (P22303 other isoform, or with tags, fused parts or gaps): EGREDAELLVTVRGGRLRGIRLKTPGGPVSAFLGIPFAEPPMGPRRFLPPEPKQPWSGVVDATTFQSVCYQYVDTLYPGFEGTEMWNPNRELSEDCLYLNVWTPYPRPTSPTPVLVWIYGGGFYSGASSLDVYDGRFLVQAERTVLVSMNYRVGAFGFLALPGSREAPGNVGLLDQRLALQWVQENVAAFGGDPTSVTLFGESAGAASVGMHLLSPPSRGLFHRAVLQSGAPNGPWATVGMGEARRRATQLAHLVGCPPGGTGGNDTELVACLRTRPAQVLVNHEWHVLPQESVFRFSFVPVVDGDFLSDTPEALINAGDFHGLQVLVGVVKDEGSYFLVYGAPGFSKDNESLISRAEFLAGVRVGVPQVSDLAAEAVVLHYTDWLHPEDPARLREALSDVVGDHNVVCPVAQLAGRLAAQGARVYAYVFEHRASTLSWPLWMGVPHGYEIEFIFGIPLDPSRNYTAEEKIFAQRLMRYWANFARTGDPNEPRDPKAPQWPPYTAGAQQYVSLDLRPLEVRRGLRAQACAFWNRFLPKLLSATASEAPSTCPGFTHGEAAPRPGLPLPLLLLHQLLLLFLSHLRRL
Description: Untersucht wurden die Wirkmechanismen der erfindungsgemäßen Verbindungen: • 1. Die Wirkung auf Acetylcholinesterase menschlicher Erythrozyten auf spektrofotometrischem Wege. • 2.

Zahl der Krämpfe = assay: Writhing test (intraperitoneal acetic acid); assay type: in vivo, Mäusen; conditions: male mice
Description: Die analgetische Wirkung der erfindungsgemäßen Verbindungen wurde an männlichen Mäusen anhand des "Krampf"-Tests (Writhing-Tests) unter intraperitonealer Injizierung von Essigsäure und des Hot-plate-Tests untersucht. Im ersten Falle wurde die analgetische Wirkung der Verbindungen anhand der prozentualen Verringerung der Zahl der Krämpfe ermittelt. Beim zweiten Test wurde die Schwelle der Schmerzempfindlichkeit (Ablecken der Pfoten) bestimmt. Die stärkste analgetische Wirkung der erfindungsgemäßen Verbindungen zeigte sich beim "Krampf"-Test. Dabei übertrafen die Salze der bicyclischen Basen Amyridin, aber nicht alle erfindungsgemäßen Verbindungen waren schwächer als Morphin (s. Tabelle 4).

Orientierungsaktivität = assay: Influence on orientation activity; assay type: in vivo, Mäusen; conditions: mice
Description: Von Interesse ist der Einfluß der erfindungsgemäßen Verbindungen auf das ZNS und das Verhalten der Tiere. Alle Verbindungen zeigen eine Kombination von stimulierenden und sedativen Eigenschaften und bei höheren Dosen auch eine m-cholinomimetische Wirkung, wobei Tremor, Speichelfluß und Diarrhoe ausgelöst werden.

M2-Cholinrezeptoren = target: T2, M2-Cholinrezeptoren (Oryctolagus cuniculus, UniProt G1TBX1); assay: Radioligand displacement of 3H-Chinuklidin in heart; assay type: binding, Kaninchen; conditions: for inhibition at 10 µM / inhibition at 1 µM: read-out: Verdrängung des 3H-Chinuklidins im Kaninchenherzen (M2-Cholinrezeptoren)
T2 construct: im Kaninchen-herzen (M2-Cholinre-zeptoren); from tissue; host or cells: rabbit heart
T2 sequence (G1TBX1 1-520): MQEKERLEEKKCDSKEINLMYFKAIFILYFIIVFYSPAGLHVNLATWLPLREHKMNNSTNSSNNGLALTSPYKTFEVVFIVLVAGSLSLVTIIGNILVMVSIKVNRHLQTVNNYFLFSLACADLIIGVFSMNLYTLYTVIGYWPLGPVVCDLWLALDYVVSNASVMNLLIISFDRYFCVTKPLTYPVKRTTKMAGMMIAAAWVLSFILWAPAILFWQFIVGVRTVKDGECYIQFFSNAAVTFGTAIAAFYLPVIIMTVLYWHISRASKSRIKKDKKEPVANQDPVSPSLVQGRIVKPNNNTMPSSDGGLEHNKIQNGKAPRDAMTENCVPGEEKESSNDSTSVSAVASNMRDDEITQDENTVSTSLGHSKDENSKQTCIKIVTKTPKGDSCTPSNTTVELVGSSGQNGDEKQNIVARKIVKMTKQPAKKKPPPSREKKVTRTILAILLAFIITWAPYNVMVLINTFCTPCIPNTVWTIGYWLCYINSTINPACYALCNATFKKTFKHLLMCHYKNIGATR
Description: as §1

[2] = Acute toxicity, single intraperitoneal injection, probit analysis (LD50); assay type: in vivo, Mäusen; conditions: mice, i.p.
Description: Ihre akute Toxizität wurde an Mäusen (einmalige intraperitoneale Injektion) nach der Methode der Probit-Analyse nach Zichtfield, Wilcoxon, t949 untersucht. In Tabelle 2 sind die Parameter der akuten Toxizität (LDso) angegeben, die eine mäßige Toxizität der erfindungsgemäßen Verbindungen belegen.

[3] = tested on: Nerven-Muskel-Präparat von Mäusen (n.peroneus-m.extensor digitorum longus); assay: Neuromuscular transmission in isolated nerve-muscle preparation (EPP, minEPP); conditions: for Stimulierung der Nerven-Muskelübertragung, in % der Amplitude: EPP: EPP = Endplattenpotential
Procedure, shortened: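 Mouse peroneal nerve–extensor digitorum longus preparation, isolated and perfused with O2/CO2-gassed Lilly solution. EPPs and spontaneous minEPPs were recorded by magnetograph, then analysed by computer for frequency, amplitude and duration.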

[4] = tested on: Calciumchlorid-Arrhythmie-Modells; assay: Calcium chloride arrhythmia model (250 mg/kg): ventricular fibrillation, survival; assay type: in vivo, Ratten; conditions: rats, calcium chloride 250 mg/kg
Description: (§2) Die antiarrhythmische Wirkung der erfindungsgemäßen Verbindungen wurde in zwei Versuchsserien untersucht, und zwar an isolierten Präparaten des rechten Vorhofs von Kaninchen und mit Hilfe des Calciumchlorid-Arrhythmie-Modells an Ratten. In den Versuchen an den isolierten Präparaten des rechten Vorhofs wurden mit Hilfe von Mikroelektroden die Dauer des AP sowie der Refraktärzeit (R) und die maximale Hemmung (e) und der Parameter (e/R) untersucht, durch den die Anfälligkeit des Myokards gegenüber der Entstehung von Arrhythmien gekennzeichnet wird. In den Versuchen an Ratten wurden diesen Calciumchlorid in einer Dosierung von 250 mg/kg injiziert. Registriert wurden das Vorliegen von Kammerflimmern und die Lebensdauer der Tiere. Sämtliche erfindungsgemäßen Verbindungen üben eine mäßige antiarrhythmische Wirkung aus. Sie steigern die Refraktärzeit des Muskels und des AP um 35 bis 145 % und verringern gleichzeitig die Anfälligkeit des Myokards, ausgedrückt durch den Parameter e/R um 10 bis 80 % (s. Tabelle 4). In bezug auf diese Wirkung waren die Salze der bicyclischen Basen wirksamer als Amyridin. Bezüglich des Vermögens, die Tiere vor Kammerflimmern und vor dem Tod nach Verabreichung von 250 mg/kg Calciumchlorid zu schützen, waren diese Verbindungen ebenfalls am stärksten wirksam. Bei Verwendung des Calciumchlorid-Arrhythmie-Modells waren viele erfindungsgemäßen Verbindungen stärker wirksam als das klassische Antiarrhythmikum Chinidin (s. M.D. Ma s kovskij, Lekarstvennye sredstva, Bd. 1, S. 401, Moskau, Medicina, 1984).

[5] = tested on: isolierten Präparaten des rechten Vorhofs von Kaninchen; assay: Antiarrhythmic effect on isolated right atrium preparations (microelectrodes: AP duration, refractory period R, e/R); conditions: isolated right atrium of rabbit, microelectrodes
Description: as §2

Wirkung von Hexenal = assay: Influence on the effect of Hexenal; assay type: in vivo, Mäusen; conditions: mice
[6] = tested on: durch Skopolamin hervorgerufene Amnesie; assay: Dark avoidance assay (passive avoidance), scopolamine-induced amnesia; assay type: in vivo, Mäusen; conditions: mice, compound s.c. 5 min before learning, Skopolamin i.p. 30 min before
[7] = Side effects and CNS/behaviour: tremor (TD50), sedative and m-cholinomimetic effects; assay type: in vivo; conditions: for TD50: in vivo
Description: Von Interesse ist der Einfluß der erfindungsgemäßen Verbindungen auf das ZNS und das Verhalten der Tiere.

α2-Adrenorezeptoren = assay: Radioligand displacement of 3H-clonidine in cerebral cortex; assay type: binding, Kaninchens; conditions: for α2-adrenoblockierende Wirkung: in words, from radioligand studies
Description: as §1

[8] = tested on: Na -Durchlässigkeit der Membrane des Ranvier-Schnürringes; assay: Na+ permeability of the node of Ranvier membrane, voltage clamp; design: species or system Frosches; conditions: concentration giving 50 % block of ion permeability
Procedure, shortened: (§3)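 Frog sciatic nerve fibres studied at the node of Ranvier under voltage clamp, measuring membrane Na+ and K+ permeability.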

[9] = tested on: K -Durchlässigkeit der Membrane des Ranvier-Schnürringes; assay: K+ permeability of the node of Ranvier membrane, voltage clamp; design: species or system Frosches; conditions: concentration giving 50 % block of ion permeability
Procedure, shortened: as §3

Samenleiter der Ratte = assay: Contractile activity of smooth muscle: rat vas deferens; conditions: n = 9; for Adrenalin 1.10^-6: Dauer, Min.: Samenleiter der Ratte
Procedure, shortened: (§4)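 Isolated rat uterus and vas deferens; effects of compounds on smooth-muscle contractile activity and on responses to acetylcholine, serotonin, adrenaline and KCl as agonists. Contraction amplitude and duration recorded mechanically.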

Uterus der Ratte = assay: Contractile activity of smooth muscle: rat uterus; conditions: n = 9; for Acetylcholin 1.10^-6 (Mol): Dauer, Min.: Uterus der Ratte (as head prints); for Serotonin 1.10^-6 (Mol): Dauer, Min.: Uterus der Ratte; for activity at 100 µM / activity at 10 µM: Rattus norvegicus
Procedure, shortened: as §4

[10] = Konzentration 1.10^-5 Mol, 10 µM
[11] = Konzentration 1.10^-6 Mol, 1 µM
[12] = toxic dose causing tremor in 50 % of the animals
[13] = mouse, in vivo, ip, read-out: LD50

Compound	Verdrängung des 3H-Propyl-2-aminobenzylats im Gehirn des Kaninchens (M-cholinrezeptoren) (M-cholinrezeptoren; [10])	Verdrängung des 3H-Propyl-2-aminobenzylats im Gehirn des Kaninchens (M-cholinrezeptoren) (M-cholinrezeptoren; [11])	inhibition at 10 µM (M2-Cholinrezeptoren; Konzentration 1.10^-5 Mol)	inhibition at 1 µM (M2-Cholinrezeptoren; Konzentration 1.10^-6 Mol)	Stimulierung der Nerven-Muskelübertragung, in % der Amplitude: EPP [3]	Stimulierung der Nerven-Muskelübertragung, in % der Amplitude: minEPP [3]	Einfluß auf das Gedächtnis: Zahl der Tiere in %, bei denen die Skopolaminwirkung aufgehoben wurde [6]	Verdrängung des 3H-Clonidins in der Hirnrinde des Kaninchens (α2-Adrenorezeptoren) (α2-Adrenorezeptoren; [10])	Verdrängung des 3H-Clonidins in der Hirnrinde des Kaninchens (α2-Adrenorezeptoren) (α2-Adrenorezeptoren; [11])	α2-adrenoblockierende Wirkung (α2-Adrenorezeptoren)	Adrenalin 1.10^-6: Dauer, Min. (Samenleiter der Ratte; Konzentration 1.10^-4 Mol)	Adrenalin 1.10^-6: Dauer, Min. (Samenleiter der Ratte; Konzentration 1.10^-5 Mol)	LD50 [2, 13]	Serotonin 1.10^-6 (Mol): Dauer, Min. (Uterus der Ratte; Konzentration 1.10^-5 Mol)	TD50 [7, 12]	other results
Cc1nc2c(c(N)c1C)CCC2 [Verbindung 1, 4-Amino-2,3-dimethyl-6,7-dihydro-5H-1-pyrindinhydrochlorid]	28	0	0%	0%	50%	90%	70%	26	0	α2-adrenoblockierende Wirkung zeigt						Ki [1]: 1070 nM; Analgetische Wirkung: Abnahme d. Zahl der "Krämpfe" bei Mäusen, in % (Zahl der Krämpfe): 60%; Änderung der Orientierungsaktivität, in % (Orientierungsaktivität): -25%; LD50 [2]: 15 mg/kg; Antiarrhythmische Wirkung: Verlängerung d. Lebensdauer von Ratten an Hand des CaCl2-Arrhythmie-Modells, in % [4]: 150%; Antiarrhythmische Wirkung: Verlängerung d. Refraktärzeit (R), in % [5]: 120%; Änderung der Dauer der Seitenlage, in %: Hexenal 60 mg/kg (Wirkung von Hexenal): +28%; Verhältnis TD50 zu ED50 ([7]; ED50 = dose blocking the effect of Skopolamin in 50 % of the animals (passive avoidance, mice)): 15; TD50 (Tremor) [7, 12]: 6 mg/kg
Nc1c2c(nc3c1CCC3)CCCC2 [Verbindung 40, 9-Amino-2,3,5,6,7,8-hexahydro-1 H-cyclopenta(b)chinolinhydrochloridhydrat, reference compound]	10	0			55%	100%	60%	10	0	fehlt jedoch praktisch	28±0.8 Min.	25±0.6 Min.	44 mg/kg	25±0.4 Min.	23.2 mg/kg	IC50 ([8]; node of Ranvier, frog sciatic nerve fibres, voltage clamp, read-out: Blockierung der Na^+-Durchlässigkeit der Membrane Ic50 (Mol)): 200 µM; IC50 ([9]; node of Ranvier, frog sciatic nerve fibres, voltage clamp, read-out: Blockierung der K^+-Durchlässigkeit der Membrane Ic50 (Mol)): 450 µM; Verdrängung des 3H-Chinuklidins im Kaninchenherzen (M2-Cholinrezeptoren) (M2-Cholinrezeptoren; [10]): 0; Verdrängung des 3H-Chinuklidins im Kaninchenherzen (M2-Cholinrezeptoren) (M2-Cholinrezeptoren; [11]): 0; Acetylcholin 1.10^-6 (Mol): Dauer, Min. (Uterus der Ratte; Konzentration 1.10^-4 Mol): 30±0.9 Min.; Acetylcholin 1.10^-6 (Mol): Dauer, Min. (Uterus der Ratte; Konzentration 1.10^-5 Mol): 30±0.5 Min.; Serotonin 1.10^-6 (Mol): Dauer, Min. (Uterus der Ratte; Konzentration 1.10^-4 Mol): 30±0.5 Min.
Nc1c2c(nc3ccccc13)CCCC2 [Verbindung 41, 2,3,4,5-Tetrahydro-9-amino-acridin, reference compound]	0	0	50%	10%	22%	40%		27	0	in demselben Maße	2±0.2 Min.	2±0.06 Min.	30 mg/kg	5±0.5 Min.	10 mg/kg	IC50 ([8]; read-out: Blockierung der Na^+-Durchlässigkeit der Membrane Ic50 (Mol), node of Ranvier, frog sciatic nerve fibres, voltage clamp): 15 µM; IC50 ([9]; read-out: Blockierung der K^+-Durchlässigkeit der Membrane Ic50 (Mol), node of Ranvier, frog sciatic nerve fibres, voltage clamp): 800 µM; activity at 100 µM (Samenleiter der Ratte; Rattus norvegicus, read-out: Adrenalin 1.10^-6: Amplitude, % bezogen auf d.Kontrolle, Samenleiter der Ratte, Konzentration 1.10^-4 Mol): 35%; activity at 10 µM (Samenleiter der Ratte; Rattus norvegicus, read-out: Adrenalin 1.10^-6: Amplitude, % bezogen auf d.Kontrolle, Samenleiter der Ratte, Konzentration 1.10^-5 Mol): 120%; activity at 100 µM (Uterus der Ratte; read-out: Acetylcholin 1.10^-6 (Mol): Amplidude, % bezogen auf d. Kontrolle, Uterus der Ratte (as head prints), Konzentration 1.10^-4 Mol, ditto mark -"- repeats unverändert): 26%; activity at 10 µM (Uterus der Ratte; read-out: Acetylcholin 1.10^-6 (Mol): Amplidude, % bezogen auf d. Kontrolle, Uterus der Ratte (as head prints), Konzentration 1.10^-5 Mol, ditto mark -"- repeats unverändert): 100%; activity at 100 µM (Uterus der Ratte; read-out: Serotonin 1.10^-6 (Mol): Amplitude, % bezogen auf die Kontrolle, Uterus der Ratte, Konzentration 1.10^-4 Mol): 0%; activity at 10 µM (Uterus der Ratte; read-out: Serotonin 1.10^-6 (Mol): Amplitude, % bezogen auf die Kontrolle, Uterus der Ratte, Konzentration 1.10^-5 Mol): 164%
